Like-named read-outs stand apart in the source and are kept apart here.
What was measured:
[1] = test system: rats with chronic constriction injury (CCI) to sciatic nerve; test: Intrathecal application in CCI rats, behavioural reflex testing (PWL, PWT); type: in vivo, rat; details: for duration of significant reversal of sensitised responses: (−)-menthol 200 nmol; for EC50: Rattus norvegicus, central
naïve rats = test: Intrathecal application in naïve rats, behavioural reflex testing (PWL, PWT); type: in vivo, rat; details: icilin 10 nmol, (−)-menthol 200 nmol, data not shown
Experimental: Thermal sensitivity was assessed by measuring paw withdrawal latency (PWL, s) in response to a noxious thermal stimulus (Hargreaves' thermal stimulator, Linton Instrumentation, Diss, UK) directed to the hindpaw mid-plantar glabrous surface. Mechanical sensitivity was recorded as the paw withdrawal threshold (PWT, mN/mm^2) to calibrated von Frey filaments (Stoelting, Ill., US), as previously described^[39]. Sensitivity to noxious cold was assessed by placing animals in a waterbath with an aluminium floor containing 1 cm deep 4° C. water and counting the time the paw was held suspended over a 20 s period.
The following drugs were applied intrathecally in a 50 μl volume of saline-based vehicle at 37° C.: icilin (2.5-200 μM in saline with 0.2% dimethylformamide, DMF), LY 341495 (100 μM in saline), UBP 1112 (200 μM in saline), 2R,4R-APDC ((2R, 4R)-4-aminopyrrolidine-2,4-dicarboxylate), 300 μM in saline), ACPT-III ((1R,3R,4S)-1-aminocyclopentane-1,3,4-tricarboxylic acid), 3 mM in saline), AP-4, ((L-(1)-2-amino-4-phosphonobutyric acid), 3 mM in saline), naloxone (0.5 mM in saline), NMDA (75 μM in saline) and ACPC (1-aminocyclopropanecarboxylic acid, 15 μM in saline) (Tocris Cookson, Bristol, UK), (−)-menthol (1R,2S,5R-(−)-menthol, 4 mM in saline), cinnamaldehyde (1.5 mM in saline) and Ruthenium Red (5 μM in saline) (Sigma-Aldrich Co. Ltd, UK) and allicin (0.5 mM in saline with 0.5% DMF) and diallyl disulphide (DADS, 1 mM in saline with 0.5% DMF) (LKT Laboratories Inc., St Paul, Minn., USA). Drugs were injected into the L5/6 intrathecal space under brief halothane anaesthesia, using a 25-gauge needle microsyringe (BD Biosciences, Oxford, UK), as described previously^[39] in animals that were at peak levels of behavioural sensitisation. Behavioural reflex testing commenced 15 min following injection to allow recovery from anaesthesia^[40,41,42] and continued every 5 min thereafter until readings returned to baseline levels (n=6 in each case). We, and others^[40,41,42] find complete recovery from anaesthetic by 15 minutes. All appropriate controls were carried out to eliminate the possibility of effects due to vehicle or to injection procedure.
The TRPM8 channel activators, icilin and (−)-menthol were tested in CCI and naïve animals. The effects of icilin were additionally assessed in animals with CFA-induced inflammation or with lysolecithin-induced demyelination. Icilin was also co-administered with the μ-opioid receptor antagonist naloxone, the Group II metabotropic glutamate receptor (mGluR) antagonist, LY 341495, or the Group III mGluR antagonist, UBP 1112. The effects of these antagonists alone as well as effects of the Group II mGluR agonist, 2R,4R-APDC and the Group III mGluR agonists, ACPT-III and AP-4, were assessed in CCI animals. The TRPA1 channel activator, cinnamaldehyde, alone and with icilin, was tested in CCI animals and in naïve animals. Further TRPA1 channel activators, allicin and diallyl disulphide were assessed in naïve animals. Both icilin and cinnamaldehyde effects in CCI animals were also investigated in the additional presence of Ruthenium Red.

[2] = (−)-menthol 200 nmol intrathecal alone, 20-30 minutes post-injection
[3] = intrathecal, non-linear curve-fitting

## CC(C)[C@@H]1CC[C@@H](C)C[C@H]1O [(−)-menthol, 1R,2S,5R-(−)-menthol]
[1]; [2]
  mean percentage reversal of sensitisation, PWL: 86.1±8.1%
  mean percentage reversal of sensitisation, PWT: 80.6±4.2%
[1]; intrathecal, icilin 10 nmol
  duration of significant reversal of sensitised responses: 35 to 40 min
naïve rats
  effect on reflex responses in naïve animals: without effect

## O=C1NC(c2cccc([N+](=O)[O-])c2)=CCN1c1ccccc1O [icilin, 1-(2′-hydroxyphenyl)-4-(3″-nitrophenyl)-1,2,3,6-tetrahydropyrimidin-2-one]
[1]; CCI, NMDA/ACPC in the additional presence of icilin 10 nmol
  Ipsilateral PWL: 14.9 ± 0.6 s
[1]; CCI, NMDA/ACPC with co-injection of icilin 10 nmol
  Ipsilateral PWT: 3482.7±174.3 mN/mm^2
[1]; CCI, icilin 10 nmol, i.t.
  Mean % reversal of mechanical sensitisation (after 15-30 mins): 76.8 ± 5.3%
  Mean % reversal of thermal sensitisation (after 15-30 mins): 84.7 ± 6.0%
  PWL (s) difference from control (+ icilin): 0.9 ± 1.2 s
  PWT (mN/mm^2) difference from control (+ icilin): 775.4 ± 467.7 mN/mm^2
[1]; intrathecal, non-linear curve-fitting, read-out: EC50 (dose for 50% of maximal effect), PWL
  EC50: 0.17 ± 0.02 nM
[1]; intrathecal, non-linear curve-fitting, read-out: EC50 (dose for 50% of maximal effect), PWT
  EC50: 0.31 ± 0.02 nM
[1]; intrathecal, icilin 10 nmol
  duration of significant reversal of sensitised responses: up to 55 min
[1]; [3]
  maximal effect, reversal of sensitisation, PWL: 91.6±9.9%
  maximal effect, reversal of sensitisation, PWT: 82.6±6.8%
[1]; intrathecal, thermal and mechanical tests, nerve injury side
  dose by which analgesic effects were statistically significant: 0.125 nmol
naïve rats
  effect on reflex responses in naïve animals: without effect
